Reference: patent publication US20080090756A1, “Somatostatin agonists” (The Administrators of the Tulane Educational Fund, priority 2001, published 2008)
Bridge positions count the residues as written; N and C are the ends. Square brackets hold non-standard residues; d marks the D form. Peptide text beside a SMILES is read from it. NMeT = CN[C@H](C(=O)O)[C@@H](C)O

Columns and labels:
[1] = molecular target: T1, hSSTR-2 (Homo sapiens, UniProt P30874); assay: Radioligand binding assay, cloned human somatostatin receptor type 2; settings: CHO-K1 cell membranes, displacement of [125I]MK-678; mean ± SEM, single values = one experiment; read-out: Kd ± SEM hsst2
T1 construct: each containing the entire coding region of the full-length receptors; expressed in transfected cells
Source text: (§1) Functional Expression of the Cloned Human Somatostatin Receptors. The genomic clones containing the human somatostatin receptors (hSSTR-1 to hSSTR-5) (Yamada, Y., et al. al., Proc. Natl. Acad. Sci. USA. 1992, 89, 251-255; Yasuda, K., et al., J. Biol. Chem. 1992, 267, 20422-20428; Yamada, Y., et al., Mol. Pharmacol. 1992, 42, 2136-2142; Rohrer, L., et al., Proc. Natl. Acad. Sci. USA. 1993, 90, 4196-4200.) were kindly provided by Dr. Graeme I. Bell of the University of Chicago. The hSSTR-1, hSSTR-2, hSSTR-3, hSSTR-4 and hSSTR-5 cDNAs were isolated as a 1.5-kb PstI-XmnI fragment, 1.7-kb BamHI-HindIII fragment, 2.0-kb NcoI-HindIII fragment, 1.4-kb NheI-NdeI fragment, and a 1.2-kb HindIII-XbaI fragment, respectively, each containing the entire coding region of the full-length receptors. These fragments were independently subcloned into the corresponding restriction endonuclease sites in the mammalian expression vector pCMV5, downstream from the human cytomegalovirus (CMV) promoter, to produce the expression plasmids pCMV5/hSSTR-1, pCMV5/hSSTR-2, pCMV5/hSSTR-3, pCMV5/hSSTR-4 and pCMV5/hSSTR-5. For transfection into CHO-K1 cells, a plasmid, pRSV-neo (American Type Culture Collection, Rockville, Md.), carrying the neomycin mammalian cell selectable marker was added.
(§2) Receptor Expression and Transfection. Transfections were performed by the calcium phosphate method. CHO-K1 cells were maintained in α-minimum essential medium (α-MEM; Gibco) supplemented with 10% fetal calf serum and transfected with each of the expression plasmids using calcium phosphate precipitation. Clones that had inherited the expression plasmid were selected in α-MEM supplemented with 500 μg mL^−1 of geneticin (G418; Gibco). Independent CHO-K1 clones were picked by glass-ring cloning and expanded in culture in the selective media. Membranes were prepared from the isolated clones and hSSTR expression was initially assessed for binding with [^125I]Tyr^11-SRIF and [^125I]MK-678 (for SSTR-2).
(§3) Radioligand Binding Assays. Cell membranes of the 5 cells types were obtained from homogenates (Polytron setting 6, 15 sec) of the corresponding CHO-K1 cells, in ice-cold Tris-HCl (50 mM) and centrifuged (39000 g, 10 min×2), with an intermediate resuspension in fresh buffer. The final pellets were resuspended in Tris-HCl (10 mM) for assay. Aliquots of the membranes were incubated (30 min at 37° C.) with 0.05 nM [^125I]Tyr^11-SRIF (types 1, 3, 4, 5) or [^125I]MK-678 (type 2) in […] (pH 7.4) containing BSA (10 mg mL^−1); MgCl2 (5 mM), Trasylol (200 kIU mL^−1), bacitracin (0.02 mg mL^−1), and phenylmethanesulfonyl fluoride (0.02 mg mL^−1). The final assay volume was 0.3 mL and incubations were terminated by rapid filtration through GF/C filters pre-soaked in 0.3% poly(ethylenimine) using a Brandel rapid filtration module. Each tube and filter was then washed with aliquots of cold buffer (3×5 mL).
(§4) Specific binding is defined as the total radioligand bound minus that bound in the presence of 1.0 μM SRIF. The following total radioligand binding and non-specific binding (nsb) values were typically obtained with these assay systems: hSSTR-1, 7000 cpm total versus 3500 cpm nsb; hSSTR-2, 9000 cpm total versus 1000 cpm nsb; hSSTR-3, 8000 cpm total versus 1000 cpm nsb; hSSTR-4, 6000 cpm total versus 3500 cpm nsb; and hSSTR-5, 7500 cpm total versus 3500 cpm nsb. The binding affinities are expressed as Ki values ±SEM (nM) for each of the five receptor subtypes. Ki values derived for representative compounds of the instant invention are detailed in Table 2.
(§5) The binding affinities (Kd, nM) of all SRIF analogues were determined using their concentration-dependent displacement of ^125I-radiolabeled peptide ligands from membranes isolated from CHO cells transfected with the corresponding human somatostatin receptor.

[2] = molecular target: T2, hSSTR-1 (Homo sapiens, UniProt P30872); assay: Radioligand binding assay, cloned human somatostatin receptor type 1; settings: CHO-K1 cell membranes, displacement of [125I]Tyr11-SRIF; mean ± SEM, single values = one experiment; read-out: Kd ± SEM hsst1
T2 construct: each containing the entire coding region of the full-length receptors; expressed in transfected cells
Source text: as §1, §2, §3, §4, §5

[3] = molecular target: T3, hSSTR-3 (Homo sapiens, UniProt P32745); assay: Radioligand binding assay, cloned human somatostatin receptor type 3; settings: CHO-K1 cell membranes, displacement of [125I]Tyr11-SRIF; mean ± SEM, single values = one experiment; read-out: Kd ± SEM hsst3
T3 construct: each containing the entire coding region of the full-length receptors; expressed in transfected cells
Source text: as §1, §2, §3, §4, §5

[4] = molecular target: T4, hSSTR-4 (Homo sapiens, UniProt P31391); assay: Radioligand binding assay, cloned human somatostatin receptor type 4; settings: CHO-K1 cell membranes, displacement of [125I]Tyr11-SRIF; mean ± SEM, single values = one experiment; read-out: Kd ± SEM hsst4
T4 construct: each containing the entire coding region of the full-length receptors; expressed in transfected cells
Source text: as §1, §2, §3, §4, §5

[5] = molecular target: T5, hSSTR-5 (Homo sapiens, UniProt P35346); assay: Radioligand binding assay, cloned human somatostatin receptor type 5; settings: CHO-K1 cell membranes, displacement of [125I]Tyr11-SRIF; mean ± SEM, single values = one experiment; read-out: Kd ± SEM hsst5
T5 construct: each containing the entire coding region of the full-length receptors; expressed in transfected cells
Source text: as §1, §2, §3, §4, §5

[6] = tested on: Culture Rat Pituitary Cells; assay type: cell-based; settings: inhibition of GH release, dispersed rat anterior pituitary cells, GHRH(1-29)NH2 1 nM, 3 h at 37° C.; mean ± SEM of (n) dose response curves; read-out: Agonist IC50 ± SEM (n)
Description: SRIF Analogue Inhibition of GH Release. Anterior pituitaries from adult male rats were collected and dispersed by a previously described trypsin/DNase method. […] The cells were randomly plated at a density of approximately 200,000 cells/well (Costar cluster 24; Rochester Scientific Co., Rochester, N.Y.). […] In preparation for a hormone challenge, the cells were washed with medium 199 (Gibco, 3×1 mL). Each dose of a compound of this invention was tested in triplicate wells in a total volume of 1 mL medium 199 containing 1% BSA (fraction V; Sigma Chemical Co.). All wells contained GHRH(1-29)NH2 (1 nM). After incubation in an air/carbon dioxide atmosphere (95/5%, 3 h at 37° C.), the medium was removed and stored at −20° C. until assayed for hormone content. Growth hormone in media was measured by a standard double antibody RIA using components generously supplied by Dr. A. F. Parlow at the National Hormone and Pituitary Program (NHHP) Torrance, Calif. Agonist IC50's were calculated using Sigmaplot (Jandel Scientific, San Rafael, Calif.). Values are expressed as the mean IC50 (nM)±SEM from (n) separate dose-response curves.

T5 sequence (P35346 whole entry): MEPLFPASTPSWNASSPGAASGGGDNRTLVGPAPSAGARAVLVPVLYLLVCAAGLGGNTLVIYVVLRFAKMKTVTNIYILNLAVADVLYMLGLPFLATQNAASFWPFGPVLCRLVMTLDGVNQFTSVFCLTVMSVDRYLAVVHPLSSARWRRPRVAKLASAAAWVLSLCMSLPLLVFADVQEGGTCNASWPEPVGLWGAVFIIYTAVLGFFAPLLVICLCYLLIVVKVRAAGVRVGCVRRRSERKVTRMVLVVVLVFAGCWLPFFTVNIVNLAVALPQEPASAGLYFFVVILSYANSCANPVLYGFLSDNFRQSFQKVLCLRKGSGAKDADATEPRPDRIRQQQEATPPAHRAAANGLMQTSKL
T2 sequence (P30872 whole entry): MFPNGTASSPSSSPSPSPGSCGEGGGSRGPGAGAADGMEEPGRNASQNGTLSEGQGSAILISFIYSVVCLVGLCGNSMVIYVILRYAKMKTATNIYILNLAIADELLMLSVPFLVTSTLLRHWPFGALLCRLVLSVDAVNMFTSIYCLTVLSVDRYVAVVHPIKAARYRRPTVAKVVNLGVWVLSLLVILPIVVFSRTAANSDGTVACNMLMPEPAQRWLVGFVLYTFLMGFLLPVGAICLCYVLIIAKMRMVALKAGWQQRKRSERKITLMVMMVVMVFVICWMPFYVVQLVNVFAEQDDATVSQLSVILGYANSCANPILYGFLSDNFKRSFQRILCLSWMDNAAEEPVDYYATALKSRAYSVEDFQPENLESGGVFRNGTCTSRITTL
T1 sequence (P30874 whole entry): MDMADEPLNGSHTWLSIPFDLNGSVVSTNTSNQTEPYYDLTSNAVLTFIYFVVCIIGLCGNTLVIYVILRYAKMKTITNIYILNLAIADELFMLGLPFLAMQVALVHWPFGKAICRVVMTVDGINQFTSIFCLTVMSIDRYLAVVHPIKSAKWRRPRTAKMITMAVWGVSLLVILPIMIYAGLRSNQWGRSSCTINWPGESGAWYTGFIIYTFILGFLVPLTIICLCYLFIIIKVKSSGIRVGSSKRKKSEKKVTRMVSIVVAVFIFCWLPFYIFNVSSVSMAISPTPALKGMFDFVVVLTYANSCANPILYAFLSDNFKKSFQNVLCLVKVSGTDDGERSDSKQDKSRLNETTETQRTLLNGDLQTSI
T3 sequence (P32745 whole entry): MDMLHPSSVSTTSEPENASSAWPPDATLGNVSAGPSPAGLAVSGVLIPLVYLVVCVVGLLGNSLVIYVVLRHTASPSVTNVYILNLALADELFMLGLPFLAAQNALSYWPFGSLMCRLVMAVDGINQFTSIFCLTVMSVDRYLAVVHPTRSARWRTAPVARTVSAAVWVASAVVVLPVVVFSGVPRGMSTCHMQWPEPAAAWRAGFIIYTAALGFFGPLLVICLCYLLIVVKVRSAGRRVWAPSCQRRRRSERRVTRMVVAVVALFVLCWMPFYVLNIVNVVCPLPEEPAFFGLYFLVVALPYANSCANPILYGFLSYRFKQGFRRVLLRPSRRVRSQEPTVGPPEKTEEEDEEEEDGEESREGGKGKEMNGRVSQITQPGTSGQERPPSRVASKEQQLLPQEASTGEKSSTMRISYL
T4 sequence (P31391 whole entry): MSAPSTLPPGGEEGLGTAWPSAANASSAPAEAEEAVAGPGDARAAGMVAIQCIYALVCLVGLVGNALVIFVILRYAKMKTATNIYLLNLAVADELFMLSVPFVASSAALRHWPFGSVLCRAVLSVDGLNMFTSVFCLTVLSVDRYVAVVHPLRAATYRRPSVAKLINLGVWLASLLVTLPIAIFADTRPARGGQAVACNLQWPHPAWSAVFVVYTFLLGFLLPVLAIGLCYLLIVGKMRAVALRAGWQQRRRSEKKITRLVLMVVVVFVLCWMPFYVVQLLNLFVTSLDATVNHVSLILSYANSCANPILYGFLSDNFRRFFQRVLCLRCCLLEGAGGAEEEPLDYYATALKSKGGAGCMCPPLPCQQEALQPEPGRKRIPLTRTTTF

Compound	Kd [1] [nM]	Kd [2] [nM]	Kd [3] [nM]	Kd [4] [nM]	Kd [5] [nM]	IC50 [6] [nM]
C[C@@H](O)[C@H](NC(=O)[C@@H]1CSSC[C@H](N(C)C(=O)[C@H](N)Cc2ccccc2)C(=O)N[C@@H](Cc2ccccc2)C(=O)N[C@H](Cc2c[nH]c3ccccc23)C(=O)N[C@@H](CCCCN)C(=O)N[C@@H]([C@@H](C)O)C(=O)N1)C(N)=O [Example 2, DPhe-cyclo(NMeCys-Phe-DTrp-Lys-Thr-Cys)-Thr-NH2]	1.04 ± 0.18	378 ± 119	13 ± 0.5	> 1000	23.7	–
C[C@@H](O)[C@H](NC(=O)[C@@H]1CSSC[C@H](NC(=O)[C@H](N)Cc2ccccc2)C(=O)N[C@@H](Cc2ccccc2)C(=O)N(C)[C@H](Cc2c[nH]c3ccccc23)C(=O)N[C@@H](CCCCN)C(=O)N[C@@H]([C@@H](C)O)C(=O)N1)C(N)=O [Example 4, DPhe-cyclo(Cys-Phe-NMeDTrp-Lys-Thr-Cys)-Thr-NH2]	–	1200	–	> 1000	0.61 ± 0.36	–
C[C@@H](O)[C@H](NC(=O)[C@@H]1CSSC[C@H](NC(=O)[C@H](N)Cc2ccccc2)C(=O)N[C@@H](Cc2ccccc2)C(=O)N[C@H](Cc2c[nH]c3ccccc23)C(=O)N[C@@H](CCCCN)C(=O)N(C)[C@@H]([C@@H](C)O)C(=O)N1)C(N)=O [Example 6, DPhe-cyclo(Cys-Phe-DTrp-Lys-NMeThr-Cys)-Thr-NH2]	> 1000	> 1000	> 1000	> 1000	> 1000	–
C[C@@H](O)[C@H](NC(=O)[C@@H]1CSSC[C@H](NC(=O)[C@H](N)Cc2ccccc2)C(=O)N[C@@H](Cc2ccccc2)C(=O)N[C@H](Cc2c[nH]c3ccccc23)C(=O)N[C@@H](CCCCN)C(=O)N[C@@H]([C@@H](C)O)C(=O)N1C)C(N)=O [Example 7, DPhe-cyclo(Cys-Phe-DTrp-Lys-Thr-NMeCys)-Thr-NH2]	56.2 ± 26.4	622 ± 172	–	574	28.4 ± 19.3	–
C[C@@H](O)[C@H](NC(=O)[C@@H]1CSSC[C@H](NC(=O)[C@@H](N)Cc2ccc(O)cc2)C(=O)N[C@@H](Cc2ccccc2)C(=O)N[C@H](Cc2c[nH]c3ccccc23)C(=O)N[C@@H](CCCCN)C(=O)N(C)[C@@H]([C@@H](C)O)C(=O)N1)C(N)=O [Example 15, Tyr-cyclo(Cys-Phe-DTrp-Lys-NMeThr-Cys)-Thr-NH2] (H-YCF[dW]K[NMeT]CT-NH2; disulfide 2-7; N-terminus assumed)	61.3 ± 6.95	1000	440 ± 126	≥ 1000	92.79 ± 0.7	–
C[C@H](N)C(=O)NCC(=O)N[C@H]1CSSC[C@@H](C(=O)O)NC(=O)[C@H](CO)NC(=O)[C@H]([C@@H](C)O)NC(=O)[C@H](Cc2ccccc2)NC(=O)[C@H]([C@@H](C)O)NC(=O)[C@H](CCCCN)NC(=O)[C@H](Cc2c[nH]c3ccccc23)NC(=O)[C@H](Cc2ccccc2)NC(=O)[C@H](Cc2ccccc2)NC(=O)[C@H](CC(N)=O)NC(=O)[C@H](CCCCN)NC1=O [SRIF-14]	–	–	–	–	–	0.17 ± 0.054
SRIF-28	–	–	–	–	–	0.23 ± 0.052
